Assay [1] has as its system MDA-MB-231. Put plainly: Inhibition of epithelial growth factor-induced cell migration of human MDA-MB-231 cells pre-incubated for 24 hrs by cell invasion assay. The assay is classed as functional, cell-based.
The test system of assay [2] is MDA-MB-231. The assay can be described thus: Inhibition of epithelial growth factor-induced cell migration of human MDA-MB-231 cells at 10 uM pre-incubated for 24 hrs by cell invasion assay. In kind it is functional, cell-based.
The target in assay [3] is Integrin beta-1 (Homo sapiens) (UniProt P05556). Put plainly: Inhibition of integrin beta1 phosphorylation in human […] cells at 1 to 10 uM incubated for 24 hrs by Western blot. In kind it is cell-based. For orientation: A western blot detects proteins with antibodies after separation by electrophoresis.

This note sets out measurements from ChEMBL document CHEMBL2086310, “Alkaloids from Pachysandra terminalis inhibit breast cancer invasion and have potential for development as antimetastasis therapeutic agents” (J Nat Prod, 2012).

Activity calls are given as the source filed them. No cut-off for these calls is given here.

Integrin beta-1 (Homo sapiens), sequence (P05556 whole entry): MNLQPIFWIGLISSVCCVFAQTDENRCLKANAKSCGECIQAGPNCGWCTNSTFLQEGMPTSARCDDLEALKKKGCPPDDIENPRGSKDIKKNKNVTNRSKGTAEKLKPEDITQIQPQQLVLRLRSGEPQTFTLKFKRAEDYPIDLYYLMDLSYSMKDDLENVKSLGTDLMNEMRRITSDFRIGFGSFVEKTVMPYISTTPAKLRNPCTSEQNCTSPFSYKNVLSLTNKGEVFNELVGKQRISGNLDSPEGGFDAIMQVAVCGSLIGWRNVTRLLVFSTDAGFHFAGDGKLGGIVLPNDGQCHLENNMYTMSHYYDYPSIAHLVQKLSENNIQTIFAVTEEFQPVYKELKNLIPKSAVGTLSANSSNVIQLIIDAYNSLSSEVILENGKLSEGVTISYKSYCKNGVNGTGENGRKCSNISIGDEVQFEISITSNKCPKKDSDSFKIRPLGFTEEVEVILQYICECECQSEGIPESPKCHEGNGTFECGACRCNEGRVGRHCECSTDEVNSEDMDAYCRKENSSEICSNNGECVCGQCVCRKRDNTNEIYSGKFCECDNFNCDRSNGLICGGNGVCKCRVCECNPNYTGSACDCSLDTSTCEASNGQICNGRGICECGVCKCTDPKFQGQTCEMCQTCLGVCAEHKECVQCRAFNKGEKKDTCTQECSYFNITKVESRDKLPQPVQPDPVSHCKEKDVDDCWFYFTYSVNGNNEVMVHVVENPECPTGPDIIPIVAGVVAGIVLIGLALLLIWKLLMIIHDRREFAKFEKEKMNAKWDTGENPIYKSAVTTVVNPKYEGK

On to `C/C=C1/C(=O)C[C@H]2[C@@H]3CC[C@H]4C[C@@H](N(C)C)CC[C@]4(C)[C@H]3CC[C@]12C`, for which the IC50 – broadly, the midpoint of a concentration-inhibition curve – with MDA-MB-231 [1] came out at 870 nM. That is a sub-micromolar value.

Turning to `CC(=O)[C@H]1CC[C@H]2[C@@H]3CC[C@H]4C[C@H](N(C)C(=O)C=C(C)C)CC[C@]4(C)[C@H]3CC[C@]12C`, the inhibition result in the assay with MDA-MB-231 [2] was “inactive”.

For `CC(=O)[C@H]1CC[C@H]2[C@@H]3CC[C@H]4C[C@H](N(C)C(=O)c5ccccc5)CC[C@]4(C)[C@H]3CC[C@]12C`, in the assay on MDA-MB-231 [2], the inhibition result is “inactive”.

Turning to `CC(=O)[C@H]1CC[C@H]2[C@@H]3CC[C@H]4C[C@]5(CC[C@]4(C)[C@H]3CC[C@]12C)c1ccccc1C(=O)N5C`, the inhibition result in the assay on MDA-MB-231 [2] was “inactive”.

In turn, `C[C@@H]([C@H]1CC[C@H]2[C@@H]3CC[C@H]4C[C@@H](NC(=O)c5cccnc5)CC[C@]4(C)[C@H]3CC[C@]12C)N(C)C` [EPIPACHYSAMINE B] yielded a concentration for half-maximal inhibition (IC50) with MDA-MB-231 [1] of 350 nM.

`CC(C)=CC(=O)N[C@H]1CC[C@@]2(C)[C@@H](CC[C@@H]3[C@@H]2CC[C@]2(C)[C@@H]([C@H](C)N(C)C)CC[C@@H]32)C1` [EPIPACHYSAMINE E]: the concentration for half-maximal inhibition (IC50) in the assay on MDA-MB-231 [1] was 410 nM.

Consider `O=c1cc(N2CCOCC2)oc2c(-c3ccccc3)cccc12` [LY-294002], for which the IC50 with MDA-MB-231 [1] worked out at 380 nM.

The molecule `CC(C)[C@@H]1CN([C@H]2CC[C@@]3(C)[C@@H](CC[C@@H]4[C@@H]3CC[C@]3(C)[C@@H]([C@H](C)N(C)C)CC[C@@H]43)C2=O)C1=O` [PACHYSTERMINE A] yielded an IC50 in the assay on MDA-MB-231 [1] of 320 nM. The IC50 values of the last two molecules are within 1.5-fold of each other.

In the assay with MDA-MB-231 [1], `CC(C)[C@@H]1CN([C@H]2CC[C@@]3(C)[C@@H](CC[C@@H]4[C@@H]3CC[C@]3(C)[C@@H]([C@H](C)N(C)C)CC[C@@H]43)[C@H]2O)C1=O` [PACHYSTERMINE B] yielded a half-maximal inhibitory concentration (IC50) of 190 nM.

In turn, `C[C@@H]([C@H]1CC[C@H]2[C@@H]3CC[C@H]4[C@H](O)[C@@H](O)CC[C@]4(C)[C@H]3CC[C@]12C)N(C)C` [TERMINALINE] displayed an IC50 in the assay with MDA-MB-231 [1] of 360 nM.

Take `CC(C)[C@H]1CN([C@H]2CC[C@@]3(C)[C@@H](CC[C@@H]4[C@@H]3CC[C@]3(C)[C@@H]([C@H](C)N(C)C)[C@@H](O)C[C@@H]43)C2=O)C1=O` [TERMINAMINE A]: the IC50 in the assay with MDA-MB-231 [1] came out at 180 nM. For the same molecule, the inhibition result in assay [3] was “Dose-dependent effect”.

In the case of `CC(=O)O[C@@H]1C[C@]2(C)[C@@H]([C@H](C)N(C)C)[C@@H](O)C[C@H]2[C@@H]2CC[C@H]3[C@@H](O)[C@@H](N4C[C@H](C(C)C)C4=O)C[C@@H](OC(C)=O)[C@]3(C)[C@H]21` [TERMINAMINE B], the midpoint of inhibition with MDA-MB-231 [1], the IC50, lay at 200 nM.

In turn, `CC(=O)O[C@@H]1C[C@H](N2C[C@H](C(C)C)C2=O)[C@H](O)[C@@H]2CC[C@@H]3[C@H]([C@H](OC(=O)CC(C)C)C[C@]4(C)[C@@H]([C@H](C)N(C)C)[C@@H](O)C[C@@H]34)[C@@]12C` [TERMINAMINE C] gave an IC50 in the assay on MDA-MB-231 [1] of 80 nM.

In the assay with MDA-MB-231 [1], `CC(C)=C1CN([C@@H]2CC[C@@]3(C)[C@@H](CC[C@@H]4[C@@H]3CC[C@]3(C)[C@@H]([C@H](C)N(C)C)[C@@H](O)C[C@@H]43)[C@H]2O)C1=O` [TERMINAMINE D] displayed a 50% inhibitory concentration (IC50) of 200 nM.

In the assay with MDA-MB-231 [1], `CC(C)=C1CN([C@@H]2CC[C@@]3(C)[C@@H](CC[C@@H]4[C@@H]3CC[C@]3(C)[C@@H]([C@H](C)N(C)C)CC[C@@H]43)[C@H]2O)C1=O` [TERMINAMINE E] gave an IC50 of 70 nM.

In the case of `C/C=C1\C(=O)C[C@H]2[C@@H]3CC[C@H]4C[C@@H](N(C)C)CC[C@]4(C)[C@H]3CC[C@]12C` [Z-salignone], the IC50 in the assay with MDA-MB-231 [1] stood at 1740 nM. Against the preceding molecule, the IC50 is about 25-fold higher.
